Data on one compound can be found in publication PMC10221314 (Pharmaceuticals, 2023).

Holding throughout (assay type): cell-based
One series concerns the target T1, LXRα (Homo sapiens, UniProt Q13133).
T1 construct: a fusion plasmid of Gal4 DBD-NR LBD (comprising RXRα, RXRβ, RXRγ, PPARα, PPARβ, PPARγ, LXRα, LXRβ, GPBAR, and PXR); expressed in transfected cells; host or cells: HEK-293T
T1 sequence (Q13133 209-447 limits assumed): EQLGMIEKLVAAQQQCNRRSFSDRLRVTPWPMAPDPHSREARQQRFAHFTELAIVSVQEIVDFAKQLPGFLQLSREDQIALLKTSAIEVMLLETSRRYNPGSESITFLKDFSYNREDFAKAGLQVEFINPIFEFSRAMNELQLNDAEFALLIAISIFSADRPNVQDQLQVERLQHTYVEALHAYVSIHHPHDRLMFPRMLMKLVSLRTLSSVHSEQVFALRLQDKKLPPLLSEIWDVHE
The experiment in a line: NR selectivity one-hybrid assay in HEK-293T cells (LXRα). To be noted: activated by GW3965. How it is done: To assess the compound’s specificity, the mammalian one-hybrid assay was conducted. In this assay, HEK-293T cells were co-transfected with a fusion plasmid of Gal4 DBD-NR LBD (comprising RXRα, RXRβ, RXRγ, PPARα, PPARβ, PPARγ, LXRα, LXRβ, GPBAR, and PXR) and the UAS-TK-Luc reporter, followed by treatment with various concentrations of the compound. The positive control consisted of the corresponding nuclear receptor agonist, and the concentration used in the experiment was set to the EC50 of the agonist.
Figure 3 Compound 10b selectively antagonized FXR. The impact of compound 10b on various NRs was evaluated using a […] one-hybrid assay in HEK-293T cells. The cells were transiently co-transfected with a fusion plasmid of Gal4 DBD-NR-LBD, which included PPARα, PPARβ, PPARγ, RXRα, RXRβ, RXRγ, LXRα, LXRβ, GPBAR, PXR, and FXR, in combination with the UAS-TK-Luc reporter. […] The values are expressed as the means ± SE of three independent experiments. *: p < 0.05 vs. RA (relative agonist).

The next series concerns FXR downstream genes. Nature of the series: mRNA expression of FXR downstream genes in HepG2 cells (qRT-PCR). The following applies: 10 μM and 1 μM, 24 h. How it is done:
Cells and liver tissue samples were subjected to RNA extraction and purification, followed by reverse transcription of equal amounts of total RNA into […] using a Transcriptor First Strand cDNA Synthesis Kit (Roche). The relative expression levels of the target gene were determined using TaqMan probe/primers with an ABI Q3 quantitative real-time PCR system, while GAPDH/Gapdh was utilized as an internal control for mRNA expression. The fold change in the expression of the target mRNA was calculated using Equation 2^−ΔΔCt.
(A) Relative mRNA level of SHP; (B) Relative mRNA level of BSEP; (C) Relative mRNA level of CYP7A1; (D) Relative mRNA level of SREBP1c; (E) Relative mRNA level of PEPCK; (F) Expression level of G6Pase. HepG2 cells were seeded in a 6-well plate and treated with DMSO and varying concentrations of compound 10b for 24 h with or without 50 μM of 1. The mRNA levels of SHP, BSEP, CYP7A1, SREBP1c, PEPCK, and G6Pase were quantified and normalized to β-actin expression.
In general terms: Real-time PCR tracks product formation cycle by cycle.

In the next series the test system is LX-2 cells. The experiment in a line: Western blot of liver-fibrosis-associated proteins in LX-2 cells and HSC-T6 cells. The following applies: 20 μM. How it is done:
The total protein concentration in cell and liver tissue lysates was determined using a BCA kit (Beyotime Biotechnology, P0009). Following immune precipitation with appropriate antibodies overnight at 4 °C and incubation with Protein A/G Plus-agarose (Santa Cruz Biotechnology, sc-2003), immunocomplexes or lysates were subjected to SDS-PAGE gel electrophoresis and transferred onto PVDF membranes. Target proteins were detected using specific primary antibodies and an appropriate secondary antibody, with electrochemiluminescence carried out according to the manufacturer’s instructions with a Tanon 5200 imaging system (Shanghai, China). The internal control utilized was GADPH.
(A–E) The LX-2 cells underwent a 24 h treatment of 2 ng·mL^−1 TGFβ1, with or without varying concentrations of candidate compounds, following FBS starvation. […] GAPDH/GAPDH was used as the loading control. The mean ± SD values were obtained from three independent assays. […] ANOVA was followed by Tukey’s test for statistical analysis.
Background: A western blot detects proteins with antibodies after separation by electrophoresis.

Setting [1] is: in the presence and absence of compound 1 (50 μM).

For `CC1(C)CCC2(C(=O)O)CCC3(C)C(C(OC(=O)CCC(NC(=O)OC(C)(C)C)C(=O)OC(C)(C)C)CC4C5(C)CCC(O)C(C)(C)C5CCC43C)C2C1` [Compound 10b, 3β-hydroxy-12β-(4′-((tert-butoxycarbonyl)amide)-5′-(tert-butoxy)-L-glutamte)oxy-13H-olean-28-oic acid], the “antagonistic effects against LXRα” value at LXRα is recorded as 10–20%. Further, in the series on FXR downstream genes, the “expression of G6Pase (mRNA)” value is reported as “inhibited the expression” and the “expression of PEPCK (mRNA)” value was “inhibited the expression”. In the series with FXR downstream genes (setting [1]), the “expression of BSEP (mRNA)” value is given as “inhibit”, the “expression of CYP7A1 (mRNA)” value is “increasing the expression”, the “expression of SHP (mRNA)” value is on record as “inhibit” and the “expression of SREBP1c (mRNA)” value is “inhibit”. Further, in the series on LX-2 cells, the “content of protein TGFβ1” value is listed as “reduced”, the “content of protein TIMP1” value is “reduced” and the “content of protein a-SMA” value was “reduced”.
